Measurements published in PubChem BioAssay (NCI).
Values joined by “and” are separate entries in the source; they are usually repeats but may differ in a detail not shown here. Equal entries are not always repeated.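 Values below derive from 48-hour exposures of cells grown in 96-well plates, with endpoints linearly interpolated between the two concentrations bracketing the appropriate inhibition level. At the GI50, growth is halved. TGI marks complete inhibition of growth.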

How the values were obtained:
Assay in all cases: inhibition of tumour cell growth, NCI panel, 48 h
KM20L2 colon = test system: KM20L2 colon
NCI-H460 lung = test system: NCI-H460 lung
OVCAR-4 ovarian = test system: OVCAR-4 ovarian
ACHN renal = test system: ACHN renal
SK-MEL-5 melanoma = test system: SK-MEL-5 melanoma
LXFL 529 NSCLC = test system: LXFL 529 NSCLC
NCI-H23 lung = test system: NCI-H23 lung
M19-MEL melanoma = test system: M19-MEL melanoma
TK-10 renal = test system: TK-10 renal
BT-549 breast = test system: BT-549 breast
PC-3 prostate = test system: PC-3 prostate

O=S1c2ccccc2NC(c2ccc3ccccc3c2)CC1c1ccccc1 (stereo not drawn)
TGI (KM20L2 colon): 48.9 µM
TGI (NCI-H460 lung): 47.1 µM
TGI (OVCAR-4 ovarian): 53.9 µM
TGI (ACHN renal): 52.2 µM
TGI (SK-MEL-5 melanoma): 37.9 µM
TGI (LXFL 529 NSCLC): 30.5 µM
TGI (NCI-H23 lung): 40.1 µM
TGI (M19-MEL melanoma): 43.3 µM
TGI (TK-10 renal): > 100 µM

O=C(Cc1ccc(Nc2ccnc(C(F)(F)F)c2)cc1)Nc1cc(Cl)ccc1O
GI50 (NCI-H460 lung): 6.92 µM
TGI (NCI-H460 lung): 27.9 µM
GI50 (OVCAR-4 ovarian): 9.48 µM
TGI (OVCAR-4 ovarian): 84.2 µM
GI50 (BT-549 breast): 4.07 µM
TGI (BT-549 breast): 22.5 µM
GI50 (PC-3 prostate): 2.58 µM
TGI (PC-3 prostate): 12.4 µM
GI50 (ACHN renal): 4.44 µM
TGI (ACHN renal): 44.2 µM
GI50 (SK-MEL-5 melanoma): 3.86 µM
TGI (SK-MEL-5 melanoma): 14.7 µM
GI50 (NCI-H23 lung): 2.86 µM
TGI (NCI-H23 lung): 13.3 µM
GI50 (TK-10 renal): 17.7 µM
TGI (TK-10 renal): 56 µM

COc1cc(C(=O)O/N=C(\N)Cc2cccc3ccccc23)cc(OC)c1OC
GI50 (NCI-H460 lung): 2.78 µM
TGI (NCI-H460 lung): 7.81 µM
GI50 (OVCAR-4 ovarian): 10.6 µM
TGI (OVCAR-4 ovarian): 26 µM
GI50 (BT-549 breast): 14.6 µM
TGI (BT-549 breast): 29.7 µM
GI50 (PC-3 prostate): 6.02 µM
TGI (PC-3 prostate): 20.6 µM
GI50 (ACHN renal): 7.11 µM
TGI (ACHN renal): 20.3 µM
GI50 (SK-MEL-5 melanoma): 2.05 µM
TGI (SK-MEL-5 melanoma): 4.71 µM
GI50 (NCI-H23 lung): 11.4 µM
TGI (NCI-H23 lung): 29.8 µM
GI50 (TK-10 renal): 20.7 µM
TGI (TK-10 renal): 35.2 µM

CN(C)CC1CCCCCC(Br)C1=O (stereo not drawn)
TGI (NCI-H460 lung): 49.6 µM
TGI (OVCAR-4 ovarian): 33.6 µM
TGI (BT-549 breast): 26.4 µM
TGI (PC-3 prostate): 43.6 µM
TGI (ACHN renal): 19.6 µM
TGI (SK-MEL-5 melanoma): 30.3 µM
TGI (NCI-H23 lung): 29.6 µM
TGI (TK-10 renal): 17.7 µM

CCCC(C)c1c(Cl)nc(Cl)nc1Cl (stereo not drawn)
TGI (NCI-H460 lung): 45.6 µM
TGI (OVCAR-4 ovarian): 44.7 µM
TGI (BT-549 breast): 5.16 µM
TGI (PC-3 prostate): 46 µM
TGI (ACHN renal): 15.5 µM
TGI (SK-MEL-5 melanoma): 13.9 µM
TGI (NCI-H23 lung): 18 µM
TGI (TK-10 renal): 37.4 µM

Nc1c(C(=O)NC23CC4CC(CC(C4)C2)C3)[n+]([O-])c2ccccc2[n+]1[O-]
TGI (KM20L2 colon): > 100 µM
TGI (NCI-H460 lung): > 100 µM
TGI (OVCAR-4 ovarian): > 100 µM
TGI (ACHN renal): > 100 µM
TGI (SK-MEL-5 melanoma): > 100 µM
TGI (LXFL 529 NSCLC): > 100 µM
TGI (NCI-H23 lung): > 100 µM
TGI (M19-MEL melanoma): > 100 µM
TGI (TK-10 renal): > 100 µM

Cc1cn([C@H]2C[C@H](O)[C@@H](CO)O2)c(=O)nc1N
TGI (NCI-H460 lung): > 100 µM
TGI (OVCAR-4 ovarian): > 100 µM
TGI (BT-549 breast): > 100 µM
TGI (PC-3 prostate): > 100 µM
TGI (ACHN renal): > 100 µM
TGI (SK-MEL-5 melanoma): > 100 µM
TGI (NCI-H23 lung): > 100 µM
TGI (TK-10 renal): > 100 µM

O=C(Nc1ccc(Nc2ccncc2)cc1)c1ccc(Nc2ccnc3ccc([N+](=O)[O-])cc23)cc1[N+](=O)[O-]
GI50 (NCI-H460 lung): 9.96 µM
TGI (NCI-H460 lung): > 100 µM
GI50 (OVCAR-4 ovarian): 6.01 µM
TGI (OVCAR-4 ovarian): > 79.1 µM
GI50 (BT-549 breast): > 78.5 µM
TGI (BT-549 breast): > 100 µM
GI50 (PC-3 prostate): 5.05 µM
TGI (PC-3 prostate): > 40 µM
GI50 (ACHN renal): 15.5 µM
TGI (ACHN renal): 37.2 µM
GI50 (SK-MEL-5 melanoma): 25.8 µM
TGI (SK-MEL-5 melanoma): > 100 µM
GI50 (NCI-H23 lung): 20.6 µM
TGI (NCI-H23 lung): > 100 µM
GI50 (TK-10 renal): 27.9 µM
TGI (TK-10 renal): > 80.2 µM

O=C(Cn1c(C(=O)c2ccc(Cl)cc2)nc(-c2ccccc2)c1-c1ccccc1)c1ccc(Cl)cc1
GI50 (NCI-H460 lung): > 100 µM
TGI (NCI-H460 lung): > 100 µM
GI50 (OVCAR-4 ovarian): > 100 µM
TGI (OVCAR-4 ovarian): > 100 µM
GI50 (BT-549 breast): > 100 µM
TGI (BT-549 breast): > 100 µM
GI50 (PC-3 prostate): > 100 µM
TGI (PC-3 prostate): > 100 µM
GI50 (ACHN renal): > 100 µM
TGI (ACHN renal): > 100 µM
GI50 (SK-MEL-5 melanoma): > 100 µM
TGI (SK-MEL-5 melanoma): > 100 µM
GI50 (NCI-H23 lung): > 100 µM
TGI (NCI-H23 lung): > 100 µM
GI50 (TK-10 renal): > 100 µM
TGI (TK-10 renal): > 100 µM

CC(C)C[CH2][Ge]([CH2]CC(C)C)([CH2]CC(C)C)[CH2]CC(C)C
GI50 (NCI-H460 lung): > 100 µM
TGI (NCI-H460 lung): > 100 µM
GI50 (OVCAR-4 ovarian): > 100 µM
TGI (OVCAR-4 ovarian): > 100 µM
GI50 (BT-549 breast): > 100 µM
TGI (BT-549 breast): > 100 µM
GI50 (PC-3 prostate): > 100 µM
TGI (PC-3 prostate): > 100 µM
GI50 (ACHN renal): > 100 µM
TGI (ACHN renal): > 100 µM
GI50 (SK-MEL-5 melanoma): > 100 µM
TGI (SK-MEL-5 melanoma): > 100 µM
GI50 (NCI-H23 lung): > 100 µM
TGI (NCI-H23 lung): > 100 µM
GI50 (TK-10 renal): > 100 µM
TGI (TK-10 renal): > 100 µM

COc1ccc(/C=N\NC(=O)c2ccc3nc(-c4ccc(Cl)cc4)[nH]c3c2)cc1
GI50 (NCI-H460 lung): 1.83 µM
TGI (NCI-H460 lung): 3.59 µM
GI50 (OVCAR-4 ovarian): 1.79 µM
TGI (OVCAR-4 ovarian): 3.36 µM
GI50 (BT-549 breast): 3.36 µM
TGI (BT-549 breast): 16.4 µM
GI50 (PC-3 prostate): 1.66 µM
TGI (PC-3 prostate): 3.76 µM
GI50 (ACHN renal): 2 µM
TGI (ACHN renal): 5.04 µM
GI50 (SK-MEL-5 melanoma): 1.89 µM
TGI (SK-MEL-5 melanoma): 3.88 µM
GI50 (NCI-H23 lung): 2.74 µM
TGI (NCI-H23 lung): 11.2 µM
GI50 (TK-10 renal): 2.95 µM
TGI (TK-10 renal): 6.59 µM

O=C(c1ccco1)c1nc2cc(C(F)(F)F)ccc2[n+]([O-])c1C(F)(F)F
GI50 (NCI-H460 lung): 61 µM
TGI (NCI-H460 lung): > 100 µM
GI50 (OVCAR-4 ovarian): 17.9 µM
TGI (OVCAR-4 ovarian): 55.2 µM
GI50 (BT-549 breast): 63 µM
TGI (BT-549 breast): > 100 µM
GI50 (PC-3 prostate): 43.3 µM
TGI (PC-3 prostate): > 100 µM
GI50 (ACHN renal): 47.1 µM
TGI (ACHN renal): > 100 µM
GI50 (SK-MEL-5 melanoma): 33.3 µM
TGI (SK-MEL-5 melanoma): > 100 µM
GI50 (NCI-H23 lung): 35.6 µM
TGI (NCI-H23 lung): > 100 µM
GI50 (TK-10 renal): 50.8 µM
TGI (TK-10 renal): > 100 µM

c1ccc2cc(C[n+]3ccn(Cc4ccc5ccccc5n4)c3)ccc2c1
GI50 (NCI-H460 lung): 0.456 µM and 3.74 µM
TGI (NCI-H460 lung): 10.8 µM and 14.6 µM
GI50 (OVCAR-4 ovarian): 0.26 µM and 1.43 µM
TGI (OVCAR-4 ovarian): 4.8 µM and 15.2 µM
GI50 (BT-549 breast): 0.347 µM and 2.54 µM
TGI (BT-549 breast): 1.51 µM and 8.46 µM
GI50 (PC-3 prostate): 0.342 µM and 2.39 µM
TGI (PC-3 prostate): 3.18 µM and 13.9 µM
GI50 (ACHN renal): 5.54 µM
TGI (ACHN renal): 18.5 µM
GI50 (SK-MEL-5 melanoma): 0.216 µM and 1.21 µM
TGI (SK-MEL-5 melanoma): 0.532 µM and 2.5 µM
GI50 (NCI-H23 lung): 0.311 µM and 2.7 µM
TGI (NCI-H23 lung): 3.23 µM and 14.6 µM
GI50 (TK-10 renal): 1.71 µM and 10.4 µM
TGI (TK-10 renal): 6.47 µM and 23.8 µM

COc1ccc2c(c1)[nH]c(=O)c1c3cc(OC)c(OC)cc3cn21
GI50 (NCI-H460 lung): < 0.01 µM
TGI (NCI-H460 lung): 1.04 µM
GI50 (OVCAR-4 ovarian): 0.0384 µM
TGI (OVCAR-4 ovarian): 4.72 µM
GI50 (BT-549 breast): < 0.024 µM
TGI (BT-549 breast): 0.861 µM
GI50 (PC-3 prostate): < 0.01 µM
TGI (PC-3 prostate): 1.6 µM
GI50 (ACHN renal): < 0.01 µM
TGI (ACHN renal): 16.1 µM
GI50 (SK-MEL-5 melanoma): < 0.01 µM
TGI (SK-MEL-5 melanoma): 11.2 µM
GI50 (NCI-H23 lung): < 0.0173 µM
TGI (NCI-H23 lung): 16.4 µM
GI50 (TK-10 renal): 0.386 µM
TGI (TK-10 renal): 17.3 µM

CCOC(=O)c1ccccc1SC(C[N+](=O)[O-])c1ccccc1 (stereo not drawn)
GI50 (NCI-H460 lung): 18.6 µM
TGI (NCI-H460 lung): 39.5 µM
GI50 (OVCAR-4 ovarian): 12.9 µM
TGI (OVCAR-4 ovarian): 25.5 µM
GI50 (BT-549 breast): 2.31 µM
TGI (BT-549 breast): 5.53 µM
GI50 (PC-3 prostate): 4.4 µM
TGI (PC-3 prostate): 16.6 µM
GI50 (ACHN renal): 2.02 µM
TGI (ACHN renal): 4.51 µM
GI50 (SK-MEL-5 melanoma): 5.09 µM
TGI (SK-MEL-5 melanoma): 17.4 µM
GI50 (NCI-H23 lung): 12.3 µM
TGI (NCI-H23 lung): 35.1 µM
GI50 (TK-10 renal): 5.91 µM
TGI (TK-10 renal): 18.8 µM

CC[C@H](C)[C@H](NC(=O)NC(C)(C)C)C(=O)N(C)[C@H](C[C@@H](OC(C)=O)c1nc(C(=O)N[C@@H](Cc2ccccc2)C[C@H](C)C(=O)OC)cs1)C(C)C
GI50 (NCI-H460 lung): 0.699 µM
TGI (NCI-H460 lung): > 13.7 µM
GI50 (OVCAR-4 ovarian): 1.21 µM
TGI (OVCAR-4 ovarian): > 25 µM
GI50 (BT-549 breast): 0.241 µM
TGI (BT-549 breast): 1.52 µM
GI50 (PC-3 prostate): 0.924 µM
TGI (PC-3 prostate): > 25 µM
GI50 (ACHN renal): 1.15 µM
TGI (ACHN renal): > 25 µM
GI50 (SK-MEL-5 melanoma): 0.139 µM
TGI (SK-MEL-5 melanoma): 0.604 µM
GI50 (NCI-H23 lung): 0.825 µM
TGI (NCI-H23 lung): > 25 µM
GI50 (TK-10 renal): 0.963 µM
TGI (TK-10 renal): > 25 µM
